Measurements from US20130225543A1, “SPECIFIC REGULATION OF CYTOKINE LEVELS BY HDAC6 INHIBITORS” (Acetylon Pharmaceuticals, priority 2010, published 2013).

Tests used:
HDAC1 = target: T1, HDAC1 (Homo sapiens, UniProt Q13547); test: Kinetic HDAC enzyme inhibition assay, HDAC1; format: biochemical; settings: recombinant HDAC
T1 construct: purchased BPS Biosciencies (San Diego, Calif.)
Experimental: (§1) HDAC inhibitory activity of the compounds described in Table 1 is measured using a kinetic HDAC assay. Recombinant HDACs are obtained from BPS Biosciencies (San Diego, Calif.). […] Fluorescence measurements are obtained approximately once per minute using a multilabel plate reader. Data were analyzed using GraphPad Prism.

HDAC4 = target: T2, HDAC4 (Homo sapiens, UniProt P56524); test: Kinetic HDAC enzyme inhibition assay, HDAC4; format: biochemical; settings: recombinant HDAC
T2 construct: purchased BPS Biosciencies (San Diego, Calif.)
T2 sequence (P56524 whole entry): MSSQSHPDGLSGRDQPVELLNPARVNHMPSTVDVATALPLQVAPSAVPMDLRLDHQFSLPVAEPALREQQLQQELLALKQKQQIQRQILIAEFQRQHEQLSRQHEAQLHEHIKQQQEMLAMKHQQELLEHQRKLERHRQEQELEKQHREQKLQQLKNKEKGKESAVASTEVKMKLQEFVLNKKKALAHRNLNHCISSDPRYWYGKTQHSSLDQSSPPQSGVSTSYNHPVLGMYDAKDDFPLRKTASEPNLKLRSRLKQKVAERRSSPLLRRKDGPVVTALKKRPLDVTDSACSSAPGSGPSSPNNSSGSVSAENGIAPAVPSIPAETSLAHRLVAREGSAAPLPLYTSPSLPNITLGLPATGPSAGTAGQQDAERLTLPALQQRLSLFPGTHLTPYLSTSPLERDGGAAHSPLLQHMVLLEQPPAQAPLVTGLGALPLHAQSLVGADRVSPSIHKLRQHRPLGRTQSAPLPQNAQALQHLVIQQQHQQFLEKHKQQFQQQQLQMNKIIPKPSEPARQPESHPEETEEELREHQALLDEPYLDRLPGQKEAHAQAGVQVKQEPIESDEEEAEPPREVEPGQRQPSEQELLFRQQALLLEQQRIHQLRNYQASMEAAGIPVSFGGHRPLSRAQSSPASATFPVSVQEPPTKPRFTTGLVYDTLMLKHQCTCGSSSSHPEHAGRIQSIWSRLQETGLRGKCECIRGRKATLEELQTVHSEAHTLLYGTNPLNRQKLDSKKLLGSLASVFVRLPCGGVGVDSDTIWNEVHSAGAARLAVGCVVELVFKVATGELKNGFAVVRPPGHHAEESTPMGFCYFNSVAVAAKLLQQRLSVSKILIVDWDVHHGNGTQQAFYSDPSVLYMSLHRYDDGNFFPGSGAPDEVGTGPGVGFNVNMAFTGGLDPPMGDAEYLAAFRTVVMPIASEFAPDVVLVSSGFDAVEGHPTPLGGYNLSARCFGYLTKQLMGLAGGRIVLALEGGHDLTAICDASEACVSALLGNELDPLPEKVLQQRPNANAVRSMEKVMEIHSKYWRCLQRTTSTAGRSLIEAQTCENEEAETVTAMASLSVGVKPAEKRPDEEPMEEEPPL
Experimental: as §1

HDAC2 = target: T3, HDAC2 (Homo sapiens, UniProt Q92769); test: Kinetic HDAC enzyme inhibition assay, HDAC2; format: biochemical; settings: recombinant HDAC
T3 construct: purchased BPS Biosciencies (San Diego, Calif.)
T3 sequence (Q92769 whole entry): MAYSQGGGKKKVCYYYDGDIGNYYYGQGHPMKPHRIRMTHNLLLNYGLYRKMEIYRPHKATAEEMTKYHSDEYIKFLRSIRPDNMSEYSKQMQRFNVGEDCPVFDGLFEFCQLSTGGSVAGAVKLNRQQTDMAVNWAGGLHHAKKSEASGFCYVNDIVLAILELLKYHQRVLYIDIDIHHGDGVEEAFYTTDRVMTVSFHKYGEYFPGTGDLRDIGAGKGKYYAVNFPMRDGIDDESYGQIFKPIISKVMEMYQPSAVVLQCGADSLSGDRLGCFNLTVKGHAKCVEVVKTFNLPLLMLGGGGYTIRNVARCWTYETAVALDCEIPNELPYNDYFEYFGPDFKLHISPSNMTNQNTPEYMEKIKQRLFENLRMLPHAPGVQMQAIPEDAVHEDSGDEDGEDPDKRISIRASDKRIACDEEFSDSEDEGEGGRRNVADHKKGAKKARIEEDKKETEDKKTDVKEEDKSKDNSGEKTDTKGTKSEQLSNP
Experimental: as §1

HDAC7 = target: T4, HDAC7 (Homo sapiens, UniProt Q8WUI4); test: Kinetic HDAC enzyme inhibition assay, HDAC7; format: biochemical; settings: recombinant HDAC
T4 construct: purchased BPS Biosciencies (San Diego, Calif.)
T4 sequence (Q8WUI4 1-952): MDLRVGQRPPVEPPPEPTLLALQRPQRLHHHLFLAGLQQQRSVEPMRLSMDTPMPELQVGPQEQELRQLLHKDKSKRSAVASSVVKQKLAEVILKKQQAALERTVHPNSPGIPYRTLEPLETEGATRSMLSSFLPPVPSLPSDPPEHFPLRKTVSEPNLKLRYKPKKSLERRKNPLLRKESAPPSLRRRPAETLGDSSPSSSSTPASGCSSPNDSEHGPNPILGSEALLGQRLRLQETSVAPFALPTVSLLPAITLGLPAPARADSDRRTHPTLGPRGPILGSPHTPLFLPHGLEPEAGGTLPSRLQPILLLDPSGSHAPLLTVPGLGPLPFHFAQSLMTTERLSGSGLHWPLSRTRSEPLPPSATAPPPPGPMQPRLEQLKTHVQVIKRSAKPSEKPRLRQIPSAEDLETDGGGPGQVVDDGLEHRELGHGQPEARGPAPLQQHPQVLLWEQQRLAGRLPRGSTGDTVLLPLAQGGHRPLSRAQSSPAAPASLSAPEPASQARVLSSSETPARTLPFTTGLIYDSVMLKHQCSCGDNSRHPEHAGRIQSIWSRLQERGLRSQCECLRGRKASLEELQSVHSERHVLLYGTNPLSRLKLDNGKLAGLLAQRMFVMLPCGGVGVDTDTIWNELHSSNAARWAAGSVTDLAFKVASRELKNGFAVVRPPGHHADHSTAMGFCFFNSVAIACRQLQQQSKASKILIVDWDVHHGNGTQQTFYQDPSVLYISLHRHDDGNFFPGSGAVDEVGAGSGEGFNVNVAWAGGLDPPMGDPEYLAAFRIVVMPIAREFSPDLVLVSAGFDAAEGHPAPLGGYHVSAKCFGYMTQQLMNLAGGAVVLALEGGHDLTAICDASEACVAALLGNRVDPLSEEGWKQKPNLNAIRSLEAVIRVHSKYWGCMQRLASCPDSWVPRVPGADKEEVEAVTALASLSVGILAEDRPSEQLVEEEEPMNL
Experimental: as §1

HDAC9 = target: T5, HDAC9 (Homo sapiens, UniProt Q9UKV0); test: Kinetic HDAC enzyme inhibition assay, HDAC9; format: biochemical; settings: recombinant HDAC
T5 construct: purchased BPS Biosciencies (San Diego, Calif.)
T5 sequence (Q9UKV0 whole entry): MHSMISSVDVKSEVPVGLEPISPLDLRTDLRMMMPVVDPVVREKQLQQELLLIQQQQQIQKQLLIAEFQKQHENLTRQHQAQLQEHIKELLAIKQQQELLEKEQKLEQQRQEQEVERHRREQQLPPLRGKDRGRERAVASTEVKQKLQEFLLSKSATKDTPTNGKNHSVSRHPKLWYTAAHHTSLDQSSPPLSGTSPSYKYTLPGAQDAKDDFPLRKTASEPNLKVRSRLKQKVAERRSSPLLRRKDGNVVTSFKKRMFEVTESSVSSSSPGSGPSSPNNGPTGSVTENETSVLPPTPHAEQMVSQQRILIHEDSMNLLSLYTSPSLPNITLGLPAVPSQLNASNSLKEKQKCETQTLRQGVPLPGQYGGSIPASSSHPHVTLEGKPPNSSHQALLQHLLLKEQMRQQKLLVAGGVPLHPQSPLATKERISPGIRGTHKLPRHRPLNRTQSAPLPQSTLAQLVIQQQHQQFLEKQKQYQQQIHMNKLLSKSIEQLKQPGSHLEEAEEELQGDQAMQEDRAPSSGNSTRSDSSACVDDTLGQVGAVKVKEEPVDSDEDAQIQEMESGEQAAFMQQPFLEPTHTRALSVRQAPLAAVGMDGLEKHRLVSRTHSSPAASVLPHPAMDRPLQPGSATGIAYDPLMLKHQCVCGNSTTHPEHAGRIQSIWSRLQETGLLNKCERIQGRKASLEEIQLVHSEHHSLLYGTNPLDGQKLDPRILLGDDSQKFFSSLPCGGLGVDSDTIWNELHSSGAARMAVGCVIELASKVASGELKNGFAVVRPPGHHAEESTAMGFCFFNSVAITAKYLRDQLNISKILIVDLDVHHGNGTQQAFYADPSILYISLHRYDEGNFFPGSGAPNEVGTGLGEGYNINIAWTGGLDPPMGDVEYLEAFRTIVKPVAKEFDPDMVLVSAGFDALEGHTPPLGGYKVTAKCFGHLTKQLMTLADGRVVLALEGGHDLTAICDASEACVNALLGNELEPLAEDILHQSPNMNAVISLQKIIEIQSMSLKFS
Experimental: as §1

HDAC5 = target: T6, HDAC5 (Homo sapiens, UniProt Q9UQL6); test: Kinetic HDAC enzyme inhibition assay, HDAC5; format: biochemical; settings: recombinant HDAC
T6 construct: purchased BPS Biosciencies (San Diego, Calif.)
T6 sequence (Q9UQL6 whole entry): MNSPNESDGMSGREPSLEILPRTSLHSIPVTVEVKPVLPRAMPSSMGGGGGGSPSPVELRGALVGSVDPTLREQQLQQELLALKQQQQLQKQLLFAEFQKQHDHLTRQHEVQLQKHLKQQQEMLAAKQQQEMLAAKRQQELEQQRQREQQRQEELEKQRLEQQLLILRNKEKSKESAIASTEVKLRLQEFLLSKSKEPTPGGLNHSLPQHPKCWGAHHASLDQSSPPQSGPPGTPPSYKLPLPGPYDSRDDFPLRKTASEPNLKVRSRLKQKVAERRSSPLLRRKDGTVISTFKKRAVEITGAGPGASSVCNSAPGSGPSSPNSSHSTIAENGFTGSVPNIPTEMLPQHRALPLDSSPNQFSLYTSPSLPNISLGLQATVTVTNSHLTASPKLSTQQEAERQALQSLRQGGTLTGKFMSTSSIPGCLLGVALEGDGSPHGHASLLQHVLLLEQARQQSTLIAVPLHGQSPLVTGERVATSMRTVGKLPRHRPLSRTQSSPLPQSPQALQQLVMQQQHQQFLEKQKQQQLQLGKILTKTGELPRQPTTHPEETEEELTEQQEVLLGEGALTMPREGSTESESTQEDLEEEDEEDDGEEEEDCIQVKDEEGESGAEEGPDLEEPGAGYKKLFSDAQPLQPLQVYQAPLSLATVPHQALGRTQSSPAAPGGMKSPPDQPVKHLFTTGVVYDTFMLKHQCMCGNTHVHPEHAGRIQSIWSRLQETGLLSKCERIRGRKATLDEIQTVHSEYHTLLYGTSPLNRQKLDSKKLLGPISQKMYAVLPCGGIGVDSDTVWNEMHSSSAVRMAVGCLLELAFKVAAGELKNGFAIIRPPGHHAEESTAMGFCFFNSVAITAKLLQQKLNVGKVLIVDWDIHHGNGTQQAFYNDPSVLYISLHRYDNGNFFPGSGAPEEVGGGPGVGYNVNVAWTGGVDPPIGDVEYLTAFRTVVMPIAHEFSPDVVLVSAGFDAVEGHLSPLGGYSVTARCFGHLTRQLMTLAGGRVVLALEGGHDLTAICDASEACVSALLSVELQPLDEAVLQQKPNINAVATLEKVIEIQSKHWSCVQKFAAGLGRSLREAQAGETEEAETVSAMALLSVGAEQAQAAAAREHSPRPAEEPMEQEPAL
Experimental: as §1

IL-1β = settings: Carta et al. 2006; cited from earlier work
human PBMCs = test: LPS induced cytokine release from PBMCs; format: cell-based; settings: 1 μM compound, 0.5 ng/ml LPS overnight
Experimental: Whole blood from three anonymous donors is collected in vacutainer tubes with sodium heparin as an anti-coagulant (Research Blood Components, Brighton, Mass.). A total volume of 30 ml of blood is diluted and layered over Ficoll-Paque Plus (GE Life Sciences) and centrifuged at 400×g for 30 minutes. The peripheral blood mononuclear cell (PBMC) fraction is removed from the interface of plasma and Ficoll and washed once with PBS.
Cells are seeded in 24 well plates at a density of 400,000 cells per well.
After the overnight stimulation the plates are centrifuged at 200×g for 5 minutes. The supernatant is removed and a small aliquot is reserved for determination of TNFα levels by ELISA (R&D Systems, catalog number STA00C). The remainder of the supernatant is frozen at −80° C. and sent to Millipore Bioscience Division (St. Charles, Mo.) for multiplex cytokine analysis.

[1] = tested on: proinflammatory cytokines; settings: Leoni et al. 2002, 2005; cited from earlier work
[2] = tested on: collagen induced arthritis; test: Collagen induced arthritis in mice; format: in vivo, male DBA/1OlaHsd mice; settings: 30 mg/kg twice daily injection from Day 18
Experimental: To test these two HDAC6 inhibitors in an animal model of a chronic inflammatory disease a mouse collagen induced arthritis in a semi-therapeutic mode is used. In this study male DBA/1OlaHsd mice, 6 weeks old, are anesthetized with Isoflurane and given 150 μL Type II collagen in Freund's complete adjuvant on Day 0 and Day 21. Treatment with compound is initiated on Day 18. The mice in the treatment groups are injected twice daily with 30 mg/kg of compound in 10% DMSO/10% Solutol HS15/80% 0.9% saline. […] Inflammation in the joints is measured daily and a disease score is calculated based on paw thickness.

Class I HDACs and HDAC6 = settings: Bradner et al. 2010; cited from earlier work
[3] = tested on: RAW264.7 mouse macrophages; test: TNFα protein and mRNA in LPS stimulated RAW264.7 macrophages; format: cell-based; settings: 10 ng/ml LPS, two hours; for TNFα protein level in supernatant: ELISA; for TNFα mRNA level: RT-PCR relative to GAPDH
Experimental: The cells are stimulated with 10 ng/ml LPS and incubated for two hours. The cell supernatants are collected and assayed for the level of TNFα by ELISA. The cells are harvested and mRNA purified using an RNEasy kit from Qiagen. The level of TNFα mRNA is determined by RT-PCR using a StepOne Plus real time PCR machine. The change in the relative level of TNFα mRNA as compared to the level of GAPDH mRNA is plotted, along with the concentration of TNFα protein in the supernatant (see FIG. 4).

T1 sequence (Q13547 whole entry): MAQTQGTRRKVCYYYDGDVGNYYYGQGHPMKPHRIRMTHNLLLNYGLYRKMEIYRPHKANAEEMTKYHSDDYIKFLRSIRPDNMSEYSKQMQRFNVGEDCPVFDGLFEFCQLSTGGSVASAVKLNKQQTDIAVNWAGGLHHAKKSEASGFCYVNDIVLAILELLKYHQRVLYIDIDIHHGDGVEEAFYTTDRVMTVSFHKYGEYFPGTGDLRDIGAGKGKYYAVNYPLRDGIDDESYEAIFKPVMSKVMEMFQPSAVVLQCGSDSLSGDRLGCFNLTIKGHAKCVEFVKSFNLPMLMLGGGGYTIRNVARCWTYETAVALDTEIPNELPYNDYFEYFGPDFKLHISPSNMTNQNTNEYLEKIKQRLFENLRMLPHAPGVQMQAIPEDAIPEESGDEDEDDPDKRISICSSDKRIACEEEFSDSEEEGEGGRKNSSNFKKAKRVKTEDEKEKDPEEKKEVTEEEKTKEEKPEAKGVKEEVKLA

Compound | IC50 (HDAC1) [nM] | IC50 (HDAC4) [nM] | IC50 (HDAC2) [nM] | IC50 (HDAC7) [nM] | IC50 (HDAC9) [nM] | IC50 (HDAC5) [nM] | Level of synthesis or intracellular localization of the precursors of IL-1β (IL-1β) | Secretion of mature IL-1β (IL-1β) | Number of LPS induced cytokines decreased (of eight) (human PBMCs) | further results
O=C(CCCCCCNC(=O)c1ccc(C(O)(c2ccccn2)c2ccccn2)cc1)NO [ACY-251] | 45 | > 10000 | 96 | > 10000 | > 10000 | 5900 |  |  |  | 
C[C@@H]1NC(=O)[C@H]2CCCN2C(=O)[C@H](CCCCCC(=O)[C@@H]2CO2)NC(=O)[C@@H](C)NC1=O [HC-toxin] |  |  |  |  |  |  | do not affect | inhibit secretion |  | 
O=C(CCCCCCC(=O)Nc1ccccc1)NO [SAHA, Suberoylanilide hydroxamic acid] |  |  |  |  |  |  | do not affect | inhibit secretion | six out of eight | Levels of proinflammatory cytokines [1]: non-specifically reduce
Cc1ccccc1N(c1ccccc1)c1ncc(C(=O)NCCCCCCC(=O)NO)cn1 [ACY-216] | 57 | > 10000 | 131 | > 10000 | > 10000 | > 10000 |  |  | three of eight | 
O=C(CCCCCCNC(=O)c1cnc(N(c2ccccc2)c2ccccc2)nc1)NO [ACY-63] |  |  |  |  |  |  |  |  |  | Decrease of severity of disease (average) [2]: 67%
O=C(CCCCCCC(=O)Nc1ccc([C@H]2O[C@@H](CSc3nc(-c4ccccc4)c(-c4ccccc4)o3)C[C@@H](c3ccc(CO)cc3)O2)cc1)NO [tubacin] |  |  |  |  |  |  | do not affect | inhibit secretion |  | 
COC(c1ccc(F)cc1)(c1ccc(F)cc1)c1ccc(C(=O)NCCCCCCC(=O)NO)cc1 [ACY-257] | 178 | > 10000 | 450 | > 10000 | > 10000 | 8200 |  |  | five of eight | Decrease of severity of disease (average) [2]: 50%; Effect on production of GM-CSF (human PBMCs): significantly decreasing; Effect on production of IL-1β (human PBMCs): significantly decreasing; Effect on production of IL-6 (human PBMCs): significantly decreasing; Effect on production of IL-7 (human PBMCs): no effect; Effect on production of IL-8 (human PBMCs): no effect; Effect on production of IL-10 (human PBMCs): significantly decreasing; Effect on production of MCP-1 (human PBMCs): no effect; Effect on production of TNF-α (human PBMCs): significantly decreasing
CCN(CC)Cc1ccc2cc(COC(=O)Nc3ccc(C(=O)NO)cc3)ccc2c1 [ITF2357] |  |  |  |  |  |  | do not affect | inhibit secretion |  | HDAC class selectivity (Class I HDACs and HDAC6): selective for Class I HDACs and HDAC6 but not Class IIa; Levels of proinflammatory cytokines [1]: non-specifically reduce
O=C(NO)c1cnc(NC2(c3ccccc3)CC2)nc1 [ACY-738] |  | 1600 |  | 1600 | 914 | 882 |  |  |  | TNFα protein level in supernatant [3]: inhibition; TNFα protein level in supernatant ([3]; listed as ACY-739): decreases; TNFα mRNA level [3]: inhibition; TNFα mRNA level ([3]; listed as ACY-739): decreases
CC(/C=C/C(=O)NO)=C\[C@@H](C)C(=O)c1ccc(N(C)C)cc1 [Trichostatin A] |  |  |  |  |  |  | do not affect | inhibit secretion |  | 
